Assay results published in patent US20230049145A1, “GLYCOSYLATED POLYPEPTIDES” (FRESENIUS KABI DEUTSCHLAND GMBH, priority 2019, published 2023).

Legend:
CHO cells [1] = test: Glycosylation profile of recombinant human EPO produced in CHO cells in perfusion culture supplemented with kifunensine; type: cell-based, Chinese hamster; details: CHO perfusion culture 18 days, 12 μg/L kifunensine from day 0
Method: CHO cells transfected with expression vectors encoding recombinant human EPO (UniProt Accession No. P01588, Sequence Version 1, Entry Version 195) are cultured in perfusion bioreactors for 18 days under standard operating parameters. The culture medium is supplemented with 12 μg/L kifunensine from day 0.
Recombinant human EPO produced during the culture period is harvested throughout the production phase and at the end of the culture period, a sample is obtained to determine the glycosylation profile. The resultant recombinant human EPO has increased mannosylation and sialylation compared to that produced in cultures without kifunensine.

Sp2/0 cells [2] = test: Sialylation of human IgG1 antibody (golimumab) produced in Sp2/0 cells in perfusion culture supplemented with kifunensine; glycan analysis by HILIC; type: cell-based, Murine; details: IgG1 (golimumab) from Sp2/0 cells
Method: (§1) Murine Sp2/0 cells transfected with expression vectors encoding SEQ ID NOs: 1 and 2 (which correspond to the heavy and light chains respectively of the human anti-TNFα IgG1 monoclonal antibody, golimumab) were cultured in perfusion bioreactors for 30 days under standard operating parameters. To examine the effect of kifunensine on the sialylation levels of the resulting IgG1, the perfusion cultures were supplemented with either 3, 6, 9, or 12 μg/L kifunensine (corresponding to 13 nM, 26 nM, 39 nM or 52 nM). A control culture was also maintained under the same conditions albeit in the absence of kifunensine.
(§2) On culture day 18, samples were taken from the perfusion bioreactors and the percentage sialylation of the IgG1 antibodies was determined by glycan analysis. Briefly, antibodies were first purified using protein A chromatography, glycans were then enzymatically released from the antibody, fluorescently labelled with 2-aminobenzamide and analysed using hydrophilic interaction chromatography (HILIC) based methods.

Sp2/0 cells [3] = test: Cell viability of Sp2/0 perfusion cultures supplemented with kifunensine; type: cell-based, Murine; details: Sp2/0 perfusion cultures, 3, 6, 9 or 12 μg/L kifunensine (13, 26, 39 or 52 nM), 30 days
Method: as §1

CHO cells [4] = test: Cell viability of CHO fed-batch cultures supplemented with kifunensine; type: cell-based, Chinese hamster; details: CHO fed-batch cultures, 30, 40, 50 or 60 nM kifunensine added on day 3
Method: (§3) CHO cells transfected with expression vectors encoding SEQ ID NOs: 3 and 4 (which correspond to the heavy and lights chains respectively of the human anti-RANKL IgG2 monoclonal antibody, denosumab) were cultured in bioreactors using standard fed-batch methods. To examine the effects of kifunensine on the Fc-glycan sialylation levels of the resulting IgG2, the cultures were supplemented with either 30, 40, 50 or 60 nM kifunensine on day 3 of the culture. A control culture was also maintained under the same conditions albeit in the absence of kifunensine.

CHO cells [5] = test: Fc-glycan sialylation of human IgG2 antibody (denosumab) produced in CHO cells in fed-batch culture supplemented with kifunensine; type: cell-based, Chinese hamster; details: IgG2 (denosumab) from CHO cells, day 20, FIG. 2
Method: as §2, §3
On day 20, samples were taken from bioreactors and the percentage Fc-glycan sialylation of the IgG2 antibodies was determined as described in Example 1.

O=C1N[C@@H]2[C@@H](O)[C@@H](O)[C@H](O)[C@@H](CO)N2C1=O [kifunensine, (5R,6R,7S,8R,8aS)-6,7,8-trihydroxy-5-(hydroxymethyl)-1,5,6,7,8,8a-hexahydroimidazo[1,2-a]pyridine-2,3-dione]
mannosylation of recombinant human EPO compared to cultures without kifunensine (CHO cells [1]): increased
sialylation of recombinant human EPO compared to cultures without kifunensine (CHO cells [1]): increased
kifunensine concentration giving peak sialylation levels (Sp2/0 cells [2]; culture day 18, FIG. 1): 12 µg/L
kifunensine concentration at which an increase in sialylation compared to control was evident (Sp2/0 cells [2]; culture day 18, FIG. 1, particularly 9 and 12 μg/L): ≥ 6 µg/L
kifunensine concentration giving peak sialylation levels (molar) (Sp2/0 cells [2]; culture day 18, conversion of 12 μg/L): ~52 nM
impact on cell viability (Sp2/0 cells [3]): No significant impact on cell viability
impact on cell viability (CHO cells [4]): No significant impact on cell viability
kifunensine concentration at which an increase in Fc-glycan sialylation compared to control was evident (CHO cells [5]): > 40 nM
kifunensine concentration giving peak Fc-glycan sialylation (CHO cells [5]): 60 nM
